Experimental data: patent publication US8791123B2, “Substituted pyrazolo[1,5-a]pyrimidine compounds as Trk kinase inhibitors” (Array Biopharma, Inc., priority 2009, dated 2014)
Where two headings read alike, the source gives them in different places.

How the values were obtained:
Human Jak2 kinase domain = Human Jak2 kinase domain (Homo sapiens (Human), UniProt O60674); assay: Jak2 Inhibition Assay (Omnia kinase assay); assay type: biochemical; settings: read-out: Jak2 Enzyme IC50
[1] = target: TrkA (histidine-tagged recombinant human TrkA, cytoplasmic domain) (Homo sapiens (Human), UniProt P04629); assay: TrkA ELISA Assay; assay type: biochemical; settings: Table 1; ELISA, 500 μM ATP; read-out: TrkA Enzyme IC50
Outline: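 ELISA read-out: a peroxidase-linked anti-phosphotyrosine antibody (PY20, 0.2 μg/mL) with TMB substrate, absorbance at 450 nm after acid stop. The plate-bound substrate was poly(Glu,Ala,Tyr; 6:3:1) at 0.025 mg/mL, phosphorylated by the recombinant His-tagged human TrkA cytoplasmic domain in the presence of inhibitors.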

[2] = Table 1, 500 μM ATP, >1000 nM when >50% inhibition not observed at 1000 nM

Chain of TrkA (histidine-tagged recombinant human TrkA, cytoplasmic domain) (P04629 440-796): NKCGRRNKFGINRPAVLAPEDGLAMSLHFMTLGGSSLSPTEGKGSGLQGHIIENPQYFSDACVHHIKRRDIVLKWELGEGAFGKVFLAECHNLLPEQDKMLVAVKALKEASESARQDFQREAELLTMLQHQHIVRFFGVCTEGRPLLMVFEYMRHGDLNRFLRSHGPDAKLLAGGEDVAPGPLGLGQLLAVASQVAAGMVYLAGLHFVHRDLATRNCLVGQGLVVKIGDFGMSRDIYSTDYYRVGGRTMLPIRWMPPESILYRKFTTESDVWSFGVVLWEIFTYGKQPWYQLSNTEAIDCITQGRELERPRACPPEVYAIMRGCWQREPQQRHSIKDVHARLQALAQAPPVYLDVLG
Chain of Human Jak2 kinase domain (O60674 808-1132): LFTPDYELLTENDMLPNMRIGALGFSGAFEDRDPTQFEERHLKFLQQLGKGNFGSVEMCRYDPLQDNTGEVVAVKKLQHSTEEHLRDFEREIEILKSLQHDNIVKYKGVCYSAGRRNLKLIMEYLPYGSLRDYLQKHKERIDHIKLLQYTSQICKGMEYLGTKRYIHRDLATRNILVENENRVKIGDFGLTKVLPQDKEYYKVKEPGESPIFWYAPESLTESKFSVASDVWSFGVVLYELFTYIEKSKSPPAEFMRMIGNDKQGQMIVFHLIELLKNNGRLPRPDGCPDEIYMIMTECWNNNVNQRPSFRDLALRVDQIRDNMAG

| Compound | IC50 (Human Jak2 kinase domain; [2]) [nM] | IC50 [1] [nM] | IC50 (Human Jak2 kinase domain) [nM] |
| --- | --- | --- | --- |
| COc1ncc(F)cc1[C@H]1CCCN1c1ccn2ncc(C(=O)NC[C@@H](O)CO)c2n1 [Example 150, N-((R)-2,3-dihydroxypropyl)-5-((R)-2-(5-fluoro-2-methoxypyridin-3-yl)pyrrolidin-1-yl)pyrazolo[1,5-a]pyrimidine-3-carboxamide] | > 1000 | 5.7 | – |
| NC(=O)c1cnn2ccc(N3CCC[C@@H]3c3cncc(F)c3)nc12 [Example 117, (R)-5-(2-(5-fluoropyridin-3-yl)pyrrolidin-1-yl)pyrazolo[1,5-a]pyrimidine-3-carboxamide] | > 1000 | 45 | – |
| C[C@H](NC(=O)c1cnn2ccc(N3CCC[C@@H]3c3cncc(F)c3)nc12)C(F)(F)F [Example 130, 5-((R)-2-(5-fluoropyridin-3-yl)pyrrolidin-1-yl)-N-((S)-1,1,1-trifluoropropan-2-yl)pyrazolo[1,5-a]pyrimidine-3-carboxamide] | > 1000 | 1.7 | – |
| O=C(NOC[C@@H](O)CO)c1cnn2ccc(N3CCC[C@@H]3c3cc(F)ccc3F)nc12 [Example 88, 5-((R)-2-(2,5-difluorophenyl)pyrrolidin-1-yl)-N—((S)-2,3-dihydroxypropoxy)pyrazolo[1,5-a]pyrimidine-3-carboxamide] | > 1000 | 6.13 | – |
| Cc1ncc(F)cc1[C@H]1CCCN1c1ccn2ncc(C(=O)N3CC(O)C3)c2n1 [Example 192, (R)-(5-(2-(5-fluoro-2-methylpyridin-3-yl)pyrrolidin-1-yl)pyrazolo[1,5-a]pyrimidin-3-yl)(3-hydroxyazetidin-1-yl)methanone] | > 1000 | 438 | – |
| COc1ncc(F)cc1[C@H]1CCCN1c1ccn2ncc(C(=O)NC[C@H](O)CO)c2n1 [Example 143, N—((S)-2,3-dihydroxypropyl)-5-((R)-2-(5-fluoro-2-methoxypyridin-3-yl)pyrrolidin-1-yl)pyrazolo[1,5-a]pyrimidine-3-carboxamide] | > 1000 | 8 | – |
| CC(C)NC(=O)c1cnn2ccc(N3[C@@H](c4cncc(F)c4)CC[C@@]3(C)CO)nc12 [Example 219, 5-((2S,5R)-5-(5-fluoropyridin-3-yl)-2-(hydroxymethyl)-2-methylpyrrolidin-1-yl)-N-isopropylpyrazolo[1,5-a]pyrimidine-3-carboxamide] | > 1000 | 188 | – |
| Cn1cc(F)cc([C@H]2CCCN2c2ccn3ncc(C(=O)Nc4cccnc4)c3n2)c1=O [Example 231, (R)-5-(2-(5-fluoro-1-methyl-2-oxo-1,2-dihydropyridin-3-yl)pyrrolidin-1-yl)-N-(pyridin-3-yl)pyrazolo[1,5-a]pyrimidine-3-carboxamide] | > 1000 | 8.7 | – |
| O=C(NC[C@@H](O)CO)c1cnn2ccc(N3CCC[C@@H]3c3cc(F)ccc3F)nc12 [Example 26, 5-((R)-2-(2,5-difluorophenyl)pyrrolidin-1-yl)-N—((R)-2,3-dihydroxypropyl)pyrazolo[1,5-a]pyrimidine-3-carboxamide] | > 1000 | 1.3 | – |
| O=C(c1cnn2ccc(N3CCC[C@@H]3c3cc(F)ccc3F)nc12)N1CC[C@H](O)C1 [Example 18, (5-((R)-2-(2,5-difluorophenyl)pyrrolidin-1-yl)pyrazolo[1,5-a]pyrimidin-3-yl)((S)-3-hydroxypyrrolidin-1-yl)methanone] | > 1000 | 38.3 | – |
| O=C(c1cnn2ccc(N3CCC[C@@H]3c3cncc(F)c3)nc12)N1CCC1 [Example 126, (R)-azetidin-1-yl(5-(2-(5-fluoropyridin-3-yl)pyrrolidin-1-yl)pyrazolo[1,5-a]pyrimidin-3-yl)methanone] | > 1000 | 218 | – |
| COc1ccc(F)cc1[C@H]1CCCN1c1ccn2ncc(C(=O)NC[C@H](O)CO)c2n1 [Example 55, N—((S)-2,3-dihydroxypropyl)-5-((R)-2-(5-fluoro-2-methoxyphenyl)pyrrolidin-1-yl)pyrazolo[1,5-a]pyrimidine-3-carboxamide] | – | 1 | > 1000 |
| C[C@@H](O)CNC(=O)c1cnn2ccc(N3CCC[C@@H]3c3cncc(F)c3)nc12 [Example 110, 5-((R)-2-(5-fluoropyridin-3-yl)pyrrolidin-1-yl)-N-((R)-2-hydroxypropyl)pyrazolo[1,5-a]pyrimidine-3-carboxamide] | > 1000 | 37.2 | – |
| Cc1ncc(F)cc1[C@H]1CCCN1c1ccn2ncc(C(=O)NC3(CO)CC3)c2n1 [Example 193, (R)-5-(2-(5-fluoro-2-methylpyridin-3-yl)pyrrolidin-1-yl)-N-(1-(hydroxymethyl)cyclopropyl)pyrazolo[1,5-a]pyrimidine-3-carboxamide] | > 1000 | 15.6 | – |
| CNC(=O)c1cnn2ccc(N3C[C@@H](O)C[C@@H]3c3cccc(F)c3)nc12 [Example 218, 5-((2R,4S)-2-(3-fluorophenyl)-4-hydroxypyrrolidin-1-yl)-N-methylpyrazolo[1,5-a]pyrimidine-3-carboxamide] | > 1000 | 33.9 | – |
| CONC(=O)c1cnn2ccc(N3CCC[C@@H]3c3cc(F)ccc3F)nc12 [Example 65, (R)-5-(2-(2,5-difluorophenyl)pyrrolidin-1-yl)-N-methoxypyrazolo[1,5-a]pyrimidine-3-carboxamide] | > 1000 | 0.6 | – |
| Nc1ncc(F)cc1[C@H]1CCCN1c1ccn2ncc(C(=O)N3CCC3)c2n1 [Example 221, (R)-(5-(2-(2-amino-5-fluoropyridin-3-yl)pyrrolidin-1-yl)pyrazolo[1,5-a]pyrimidin-3-yl)(azetidin-1-yl)methanone] | > 1000 | 49.3 | – |
| O=C(N[C@H]1CC[C@H](O)CC1)c1cnn2ccc(N3CCC[C@@H]3c3cccc(F)c3)nc12 [Example 35, 5-((R)-2-(3-fluorophenyl)pyrrolidin-1-yl)-N-((trans)-4-hydroxycyclohexyl)pyrazolo[1,5-a]pyrimidine-3-carboxamide] | 278 | 1.2 | – |
| CC(C)NC(=O)c1cnn2ccc(N3C[C@@H](O)C[C@@H]3c3cccc(F)c3)nc12 [Example 217, 5-((2R,4S)-2-(3-fluorophenyl)-4-hydroxypyrrolidin-1-yl)-N-isopropylpyrazolo[1,5-a]pyrimidine-3-carboxamide] | 551 | 5.8 | – |
| O=C(N[C@H]1CC[C@H](O)CC1)c1cnn2ccc(N3CCC[C@@H]3c3cc(F)ccc3F)nc12 [Example 7, 5-((R)-2-(2,5-difluorophenyl)pyrrolidin-1-yl)-N-((trans)-4-hydroxycyclohexyl)pyrazolo[1,5-a]pyrimidine-3-carboxamide] | 107 | 0.45 | – |
| C[C@@H](O)CNC(=O)c1cnn2ccc(N3CCCC3c3cc(F)ccc3F)nc12 (stereo in doubt) [Example 167, 5-((R)-2-(2,5-difluorophenyl)pyrrolidin-1-yl)-N-(2-hydroxypropyl)pyrazolo[1,5-a]pyrimidine-3-carboxamide] | > 1000 | 2.2 | – |
| C[C@@H](O)[C@H](CO)NC(=O)c1cnn2ccc(N3CCC[C@@H]3c3cc(F)ccc3F)nc12 [Example 174, 5-((R)-2-(2,5-difluorophenyl)pyrrolidin-1-yl)-N-((2S,3R)-1,3-dihydroxybutan-2-yl)pyrazolo[1,5-a]pyrimidine-3-carboxamide] | > 1000 | 16.3 | – |
| CONC(=O)c1cnn2ccc(N3CCC[C@@H]3c3cc(F)cnc3OC)nc12 [Example 83, (R)-5-(2-(5-fluoro-2-methoxypyridin-3-yl)pyrrolidin-1-yl)-N-methoxypyrazolo[1,5-a]pyrimidine-3-carboxamide] | – | 1.77 | > 1000 |
| CNC(=O)c1cnn2ccc(N3C[C@H](O)C[C@@H]3c3cccc(F)c3)nc12 [Example 43, 5-((2R,4R)-2-(3-fluorophenyl)-4-hydroxypyrrolidin-1-yl)-N-methylpyrazolo[1,5-a]pyrimidine-3-carboxamide] | > 1000 | 139 | – |
| COCC(O)CNC(=O)c1cnn2ccc(N3CCCC3c3cncc(F)c3)nc12 [Example 119, 5-((R)-2-(5-fluoropyridin-3-yl)pyrrolidin-1-yl)-N-(2-hydroxy-3-methoxypropyl)pyrazolo[1,5-a]pyrimidine-3-carboxamide] | > 1000 | 131 | – |
| CC(C)(O)CNC(=O)c1cnn2ccc(N3CCC[C@@H]3c3cncc(F)c3)nc12 [Example 111, (R)-5-(2-(5-fluoropyridin-3-yl)pyrrolidin-1-yl)-N-(2-hydroxy-2-methylpropyl)pyrazolo[1,5-a]pyrimidine-3-carboxamide] | > 1000 | 37.8 | – |
| Cn1cc(F)cc([C@H]2CCCN2c2ccn3ncc(C(=O)NCC4CC4)c3n2)c1=O [Example 232, (R)-N-(cyclopropylmethyl)-5-(2-(5-fluoro-1-methyl-2-oxo-1,2-dihydropyridin-3-yl)pyrrolidin-1-yl)pyrazolo[1,5-a]pyrimidine-3-carboxamide] | > 1000 | 4.5 | – |
| C[C@H](O)[C@@H](CO)NC(=O)c1cnn2ccc(N3CCC[C@@H]3c3cc(F)ccc3F)nc12 [Example 176, 5-((R)-2-(2,5-difluorophenyl)pyrrolidin-1-yl)-N-((2R,3S)-1,3-dihydroxybutan-2-yl)pyrazolo[1,5-a]pyrimidine-3-carboxamide] | > 1000 | 27.2 | – |
| COc1ncc(F)cc1[C@H]1CCCN1c1ccn2ncc(C(N)=O)c2n1 [Example 82, (R)-5-(2-(5-fluoro-2-methoxypyridin-3-yl)pyrrolidin-1-yl)pyrazolo[1,5-a]pyrimidine-3-carboxamide] | – | 2.55 | > 1000 |
| CC(C)NC(=O)c1cnn2ccc(N3[C@H](CO)CC[C@@H]3c3cncc(F)c3)nc12 [Example 215, 5-((2R,5S)-2-(5-fluoropyridin-3-yl)-5-(hydroxymethyl)pyrrolidin-1-yl)-N-isopropylpyrazolo[1,5-a]pyrimidine-3-carboxamide] | > 1000 | 15.3 | – |
